Results on one molecule are retold here after publication PMC5218480 (PLoS ONE, 2017).

For the assay, the system named is MV-4-11 cells. Put plainly: Gene expression microarray analysis (Affymetrix PrimeView) and GSEA. The assay is classed as cell-based, human. Details: RFU PODN (11730768_x_at) / Fold change /veh PODN (11730768_x_at) / RFU LINC00158 (11744669_a_at) / Fold change /veh LINC00158 (11744669_a_at) / RFU DUSP10 (11751237_a_at) / Fold change /veh DUSP10 (11751237_a_at) / RFU ID3 (11757404_x_at) / Fold change /veh ID3 (11757404_x_at) / RFU PLEKHG5 (11737974_s_at) / Fold change /veh PLEKHG5 (11737974_s_at) / RFU LRRC4B (11730491_at) / Fold change /veh LRRC4B (11730491_at) / RFU GIMAP4 (11747438_a_at) / Fold change /veh GIMAP4 (11747438_a_at) / RFU KRT8 (11758183_x_at) / Fold change /veh KRT8 (11758183_x_at) / RFU CNN1 (11734310_a_at) / Fold change /veh CNN1 (11734310_a_at) / RFU VPS37D (11726825_at) / Fold change /veh VPS37D (11726825_at) / RFU C10orf10 (11716522_x_at) / Fold change /veh C10orf10 (11716522_x_at) / RFU KIR2DL2 /// KIR2DL4 /// KIR2DL5A /// KIR2DL5B /// KIR2DS1 /// KIR2DS2 /// KIR2DS3 /// KIR2DS4 /// KIR3DL3 /// KIR3DL3 /// KIR3DS1 (11738374_at) / Fold change /veh KIR2DL2 /// KIR2DL4 /// KIR2DL5A /// KIR2DL5B /// KIR2DS1 /// KIR2DS2 /// KIR2DS3 /// KIR2DS4 /// KIR3DL3 /// KIR3DL3 /// KIR3DS1 (11738374_at) / RFU C1QL1 (11718748_at) / Fold change /veh C1QL1 (11718748_at) / RFU TMPRSS4 (11747572_a_at) / Fold change /veh TMPRSS4 (11747572_a_at) / RFU HAMP (11756126_x_at) / Fold change /veh HAMP (11756126_x_at) / RFU RNFT2 (11725882_a_at) / Fold change /veh RNFT2 (11725882_a_at) / RFU NR4A2 (11747474_a_at) / Fold change /veh NR4A2 (11747474_a_at) / RFU ABCC12 (11746883_a_at) / Fold change /veh ABCC12 (11746883_a_at) / RFU TMEM136 (11760407_x_at) / Fold change /veh TMEM136 (11760407_x_at) / RFU CLDN22 /// WWC2 (11732394_at) / Fold change /veh CLDN22 /// WWC2 (11732394_at) / RFU HLA-DPB1 (11760878_x_at) / Fold change /veh HLA-DPB1 (11760878_x_at) / RFU SPINT1 (11716480_a_at) / Fold change /veh SPINT1 (11716480_a_at) / RFU GAP43 (11754022_s_at) / Fold change /veh GAP43 (11754022_s_at) / RFU A4GNT (11735810_at) / Fold change /veh A4GNT (11735810_at) / RFU PRB3 (11715151_x_at) / Fold change /veh PRB3 (11715151_x_at) / RFU TUBB4B (11761932_at) / Fold change /veh TUBB4B (11761932_at) / RFU CAPN14 (11732068_a_at) / Fold change /veh CAPN14 (11732068_a_at) / RFU TMCC2 (11721928_a_at) / Fold change /veh TMCC2 (11721928_a_at) / RFU IRGQ (11745062_a_at) / Fold change /veh IRGQ (11745062_a_at) / RFU FAM174B (11720279_a_at) / Fold change /veh FAM174B (11720279_a_at) / RFU TMPRSS4 (11748680_a_at) / Fold change /veh TMPRSS4 (11748680_a_at) / RFU FAM212B (11763350_a_at) / Fold change /veh FAM212B (11763350_a_at) / RFU PLEKHG5 (11743358_a_at) / Fold change /veh PLEKHG5 (11743358_a_at) / RFU ZSCAN30 (11745921_a_at) / Fold change /veh ZSCAN30 (11745921_a_at) / RFU CMKLR1 (11741424_a_at) / Fold change /veh CMKLR1 (11741424_a_at) / RFU LOC101060620 /// MAPK8IP1 (11723275_at) / Fold change /veh LOC101060620 /// MAPK8IP1 (11723275_at) / RFU SPTSSB (11747773_x_at) / Fold change /veh SPTSSB (11747773_x_at) / RFU PRSS12 (11739890_at) / Fold change /veh PRSS12 (11739890_at) / RFU BIN1 (11741810_x_at) / Fold change /veh BIN1 (11741810_x_at) / RFU WNT11 (11732464_a_at) / Fold change /veh WNT11 (11732464_a_at) / RFU C10orf10 (11716521_a_at) / Fold change /veh C10orf10 (11716521_a_at) / RFU C5orf56 (11738089_at) / Fold change /veh C5orf56 (11738089_at) / RFU CYB561 (11721691_x_at) / Fold change /veh CYB561 (11721691_x_at) / RFU ANKRD19P (11752326_a_at) / Fold change /veh ANKRD19P (11752326_a_at) / RFU OR2T12 /// OR2T33 /// OR2T8 (11738714_s_at) / Fold change /veh OR2T12 /// OR2T33 /// OR2T8 (11738714_s_at) / RFU VCAN (11748164_a_at) / Fold change /veh VCAN (11748164_a_at) / RFU JSRP1 (11732532_at) / Fold change /veh JSRP1 (11732532_at) / RFU KRTAP10-11 (11738290_x_at) / Fold change /veh KRTAP10-11 (11738290_x_at) / RFU MYO3A (11730013_a_at) / Fold change /veh MYO3A (11730013_a_at) / RFU EBF3 (11725865_a_at) / Fold change /veh EBF3 (11725865_a_at) / RFU CAMK2N1 (11719241_x_at) / Fold change /veh CAMK2N1 (11719241_x_at) / RFU C5orf56 (11738088_a_at) / Fold change /veh C5orf56 (11738088_a_at) / RFU OLFML3 (11715873_a_at) / Fold change /veh OLFML3 (11715873_a_at) / RFU LOC100653217 /// NTM (11731650_a_at) / Fold change /veh LOC100653217 /// NTM (11731650_a_at) / RFU MAPK11 (11762145_a_at) / Fold change /veh MAPK11 (11762145_a_at) / RFU FIZ1 (11724087_x_at) / Fold change /veh FIZ1 (11724087_x_at) / RFU OASL (11726364_x_at) / Fold change /veh OASL (11726364_x_at) / RFU SOX15 (11748057_x_at) / Fold change /veh SOX15 (11748057_x_at) / RFU CD79A (11719716_a_at) / Fold change /veh CD79A (11719716_a_at) / RFU HIST1H1D (11736915_at) / Fold change /veh HIST1H1D (11736915_at) / RFU CASKIN2 (11723855_a_at) / Fold change /veh CASKIN2 (11723855_a_at) / RFU LOC730098 (11760151_x_at) / Fold change /veh LOC730098 (11760151_x_at) / RFU OR4N2 (11742367_at) / Fold change /veh OR4N2 (11742367_at) / RFU PRRT2 (11749266_a_at) / Fold change /veh PRRT2 (11749266_a_at) / RFU SNX32 (11753110_a_at) / Fold change /veh SNX32 (11753110_a_at) / RFU CDHR5 (11726645_a_at) / Fold change /veh CDHR5 (11726645_a_at) / RFU RCAN1 (11760418_a_at) / Fold change /veh RCAN1 (11760418_a_at) / RFU FAM167A (11723789_a_at) / Fold change /veh FAM167A (11723789_a_at) / RFU FAM26E (11764081_at) / Fold change /veh FAM26E (11764081_at) / RFU ISYNA1 (11749810_s_at) / Fold change /veh ISYNA1 (11749810_s_at) / RFU ACY1 (11761880_at) / Fold change /veh ACY1 (11761880_at) / RFU 11764098_at / Fold change /veh 11764098_at / RFU SAMD14 (11745864_x_at) / Fold change /veh SAMD14 (11745864_x_at) / RFU NPB (11741838_a_at) / Fold change /veh NPB (11741838_a_at) / RFU TMPRSS6 (11731388_a_at) / Fold change /veh TMPRSS6 (11731388_a_at) / RFU KRTAP10-2 (11738614_at) / Fold change /veh KRTAP10-2 (11738614_at) / RFU ARHGAP8 /// PRR5-ARHGAP8 (11727945_x_at) / Fold change /veh ARHGAP8 /// PRR5-ARHGAP8 (11727945_x_at) / RFU KRTAP5-7 /// NADSYN1 (11734609_at) / Fold change /veh KRTAP5-7 /// NADSYN1 (11734609_at) / RFU RASL12 (11751679_a_at) / Fold change /veh RASL12 (11751679_a_at) / RFU CDKN2B (11736163_a_at) / Fold change /veh CDKN2B (11736163_a_at) / RFU PRF1 (11729649_at) / Fold change /veh PRF1 (11729649_at) / RFU, ZNF638 /// ZNF638-IT1 / Fold change vs veh, ZNF638 /// ZNF638-IT1 / RFU, PANK3 / Fold change vs veh, PANK3 / RFU, SH3YL1 / Fold change vs veh, SH3YL1 / RFU, ZEB2 / Fold change vs veh, ZEB2 / RFU, NRIP1 / Fold change vs veh, NRIP1 / RFU, PTTG1IP / Fold change vs veh, PTTG1IP / RFU, CAPN2 / Fold change vs veh, CAPN2 / RFU, MED14 / Fold change vs veh, MED14 / RFU, SNORA58 / Fold change vs veh, SNORA58 / RFU, C1orf63 / Fold change vs veh, C1orf63 / RFU, LRRFIP1 / Fold change vs veh, LRRFIP1 / RFU, NDUFAF7 / Fold change vs veh, NDUFAF7 / RFU, SLC12A2 / Fold change vs veh, SLC12A2 / RFU, IBTK / Fold change vs veh, IBTK / RFU, ESF1 / Fold change vs veh, ESF1 / Fold change vs veh, TMEM50B / RFU, TAOK1 / Fold change vs veh, TAOK1 / RFU, ACBD3 / Fold change vs veh, ACBD3 / RFU, TMA16 / Fold change vs veh, TMA16 / RFU, RWDD3 / Fold change vs veh, RWDD3 / RFU, BCAT1 / Fold change vs veh, BCAT1 / RFU, EDEM3 / Fold change vs veh, EDEM3 / RFU, TMEM33 / Fold change vs veh, TMEM33 / RFU, WDR75 / Fold change vs veh, WDR75 / RFU, AHCTF1 / Fold change vs veh, AHCTF1 / RFU, TFRC / Fold change vs veh, TFRC / RFU, ZDHHC17 / Fold change vs veh, ZDHHC17 / RFU, NOM1 / Fold change vs veh, NOM1 / RFU, ARL8B / Fold change vs veh, ARL8B / RFU, ZBTB11 / Fold change vs veh, ZBTB11 / RFU, TAMM41 / Fold change vs veh, TAMM41 / RFU, KIAA1704 /// LOC100996395 / Fold change vs veh, KIAA1704 /// LOC100996395 / RFU, ING1 / Fold change vs veh, ING1 / RFU, TRMT61B / Fold change vs veh, TRMT61B / RFU, FUBP3 / Fold change vs veh, FUBP3 / RFU, TP53 / Fold change vs veh, TP53 / RFU, TNKS2 / Fold change vs veh, TNKS2 / RFU, ZFP14 / Fold change vs veh, ZFP14 / RFU, ACTR2 / Fold change vs veh, ACTR2 / RFU, PPP3R1 / Fold change vs veh, PPP3R1 / RFU, PIK3R1 / Fold change vs veh, PIK3R1 / RFU, HNRNPA1 / Fold change vs veh, HNRNPA1 / RFU, RNF170 / Fold change vs veh, RNF170 / RFU, ZNF28 / Fold change vs veh, ZNF28 / RFU, RNGTT / Fold change vs veh, RNGTT / RFU, OGT / Fold change vs veh, OGT / RFU, BRD1 / Fold change vs veh, BRD1 / RFU, MARS / Fold change vs veh, MARS / RFU, ZNF655 / Fold change vs veh, ZNF655 / RFU, FAHD1 / Fold change vs veh, FAHD1 / RFU, BDP1 / Fold change vs veh, BDP1 / RFU, LRRCC1 / Fold change vs veh, LRRCC1 / RFU, ARID1A / Fold change vs veh, ARID1A / RFU, ZNF146 / Fold change vs veh, ZNF146 / RFU, ZNF330 / Fold change vs veh, ZNF330 / RFU, GPN3 / Fold change vs veh, GPN3 / RFU, C9orf123 / Fold change vs veh, C9orf123 / RFU, N4BP2L2 / Fold change vs veh, N4BP2L2 / RFU, ARFIP1 / Fold change vs veh, ARFIP1 / RFU, FAM179B / Fold change vs veh, FAM179B / RFU, BCL10 / Fold change vs veh, BCL10 / RFU, UHRF1BP1L / Fold change vs veh, UHRF1BP1L / RFU, BET1 / Fold change vs veh, BET1 / RFU, CNOT2 / Fold change vs veh, CNOT2 / RFU, ZNF268 / Fold change vs veh, ZNF268 / Fold change vs veh, ZNF507 / RFU, DGCR2 / Fold change vs veh, DGCR2 / RFU, WDSUB1 / Fold change vs veh, WDSUB1 / Fold change vs veh, HSP90B1 /// MIR3652 / RFU, ADSS / Fold change vs veh, ADSS / RFU, GK / Fold change vs veh, GK / RFU, ZNF148 / Fold change vs veh, ZNF148 / RFU, TAF9 / Fold change vs veh, TAF9 / RFU, SLC1A5 / Fold change vs veh, SLC1A5 / RFU, SLMO2 / Fold change vs veh, SLMO2 / RFU, ABCC4 / Fold change vs veh, ABCC4 / RFU, LOC101060439 /// RAP1B / Fold change vs veh, LOC101060439 /// RAP1B / RFU, RFX7 / Fold change vs veh, RFX7 / RFU, GTPBP10 / Fold change vs veh, GTPBP10 / RFU, CNEP1R1 / Fold change vs veh, CNEP1R1 / RFU, BIVM-ERCC5 /// ERCC5 / Fold change vs veh, BIVM-ERCC5 /// ERCC5 / RFU, ILF3 / Fold change vs veh, ILF3 / RFU 11762660_at / Fold change /veh 11762660_at / RFU VCAN (11757783_s_at) / Fold change /veh VCAN (11757783_s_at) / RFU DDX43 (11728927_at) / Fold change /veh DDX43 (11728927_at) / RFU KRT8 (11758188_x_at) / Fold change /veh KRT8 (11758188_x_at) / RFU NKD1 (11759106_at) / Fold change /veh NKD1 (11759106_at) / RFU SRD5A1 (11742802_a_at) / Fold change /veh SRD5A1 (11742802_a_at) / RFU TPSAB1 /// TPSB2 (11721975_s_at) / Fold change /veh TPSAB1 /// TPSB2 (11721975_s_at) / RFU GSTM3 (11746129_a_at) / Fold change /veh GSTM3 (11746129_a_at) / RFU IL23R (11737362_x_at) / Fold change /veh IL23R (11737362_x_at) / RFU TMEM51 (11727254_a_at) / Fold change /veh TMEM51 (11727254_a_at) / RFU PIWIL2 (11732686_x_at) / Fold change /veh PIWIL2 (11732686_x_at) / RFU ORM1 (11744905_x_at) / Fold change /veh ORM1 (11744905_x_at) / RFU CCDC152 (11743942_at) / Fold change /veh CCDC152 (11743942_at) / RFU ECM1 (11717891_a_at) / Fold change /veh ECM1 (11717891_a_at) / RFU IL23R (11748794_a_at) / Fold change /veh IL23R (11748794_a_at) / RFU TNFAIP8L3 (11732012_x_at) / Fold change /veh TNFAIP8L3 (11732012_x_at) / RFU MBOAT4 (11741988_at) / Fold change /veh MBOAT4 (11741988_at) / RFU 11764193_at / Fold change /veh 11764193_at / RFU TMEM53 (11763286_at) / Fold change /veh TMEM53 (11763286_at) / RFU MAGEB2 (11727129_at) / Fold change /veh MAGEB2 (11727129_at) / RFU TMEM200A (11744735_a_at) / Fold change /veh TMEM200A (11744735_a_at) / RFU CCDC152 (11751479_a_at) / Fold change /veh CCDC152 (11751479_a_at) / RFU FAM211A (11726209_a_at) / Fold change /veh FAM211A (11726209_a_at) / RFU RGS16 (11746705_a_at) / Fold change /veh RGS16 (11746705_a_at) / RFU VCAN (11755009_s_at) / Fold change /veh VCAN (11755009_s_at) / RFU RHOB (11743442_s_at) / Fold change /veh RHOB (11743442_s_at) / RFU RGS16 (11720943_a_at) / Fold change /veh RGS16 (11720943_a_at) / RFU RGS16 (11720944_at) / Fold change /veh RGS16 (11720944_at) / RFU, VPS4B / Fold change vs veh, VPS4B / RFU, CREB1 / Fold change vs veh, CREB1 / RFU, DNAJC13 / Fold change vs veh, DNAJC13 / RFU, GNAQ / Fold change vs veh, GNAQ / RFU, CDK5R1 / Fold change vs veh, CDK5R1 / RFU, ZRANB3 / Fold change vs veh, ZRANB3 / RFU, CUL4A / Fold change vs veh, CUL4A / RFU, CCNY / Fold change vs veh, CCNY / RFU, UFL1 / Fold change vs veh, UFL1 / RFU, COG3 / Fold change vs veh, COG3 / RFU, DIAPH2 / Fold change vs veh, DIAPH2 / RFU, SKA2 / Fold change vs veh, SKA2 / RFU, AFF3 / Fold change vs veh, AFF3 / RFU, LMF1 / Fold change vs veh, LMF1 / RFU, IPO11 / Fold change vs veh, IPO11 / RFU, DFFB / Fold change vs veh, DFFB / RFU, FOXP1 / Fold change vs veh, FOXP1 / RFU, CARD8 / Fold change vs veh, CARD8 / RFU, STRN3 / Fold change vs veh, STRN3 / RFU, ADK / Fold change vs veh, ADK / RFU, RASSF2 / Fold change vs veh, RASSF2 / RFU, WIPF1 / Fold change vs veh, WIPF1 / RFU, LARP1B / Fold change vs veh, LARP1B / RFU, RASA1 / Fold change vs veh, RASA1 / RFU, RB1 / Fold change vs veh, RB1 / RFU, PPFIA1 / Fold change vs veh, PPFIA1 / RFU, MAT2A / Fold change vs veh, MAT2A / RFU, CCT5 / Fold change vs veh, CCT5 / RFU, WDR92 / Fold change vs veh, WDR92 / RFU, CUX1 / Fold change vs veh, CUX1 / RFU, TTC7A / Fold change vs veh, TTC7A / RFU, TMEM135 / Fold change vs veh, TMEM135 / RFU, DEPTOR / Fold change vs veh, DEPTOR / RFU, CPM / Fold change vs veh, CPM / RFU, DNAJB6 / Fold change vs veh, DNAJB6 / RFU, CACNA2D3 / Fold change vs veh, CACNA2D3 / RFU, DTX4 / Fold change vs veh, DTX4 / RFU, TFCP2 / Fold change vs veh, TFCP2 / RFU, GMCL1 /// GMCL1P1 / Fold change vs veh, GMCL1 /// GMCL1P1 / RFU, AEBP2 / Fold change vs veh, AEBP2 / RFU, SNHG1 /// SNORD22 /// SNORD25 /// SNORD26 /// SNORD27 /// SNORD28 /// SNORD29 /// SNORD31 / Fold change vs veh, SNHG1 /// SNORD22 /// SNORD25 /// SNORD26 /// SNORD27 /// SNORD28 /// SNORD29 /// SNORD31 / Fold change (Aza/veh), C12orf56 (ProbeSet 11735607_a_at) / Fold change (ACY-1035/veh), C12orf56 (ProbeSet 11735607_a_at) / Fold change (Aza/veh), FGFR1OP (ProbeSet 11751329_s_at) / Fold change (ACY-1035/veh), FGFR1OP (ProbeSet 11751329_s_at) / Fold change (Aza/veh), VPS36 (ProbeSet 11739960_a_at) / Fold change (ACY-1035/veh), VPS36 (ProbeSet 11739960_a_at) / RFU SYPL1 (11715823_x_at) / Fold change /veh SYPL1 (11715823_x_at) / RFU IGFBP7 (11715501_s_at) / Fold change /veh IGFBP7 (11715501_s_at) / RFU REEP3 (11722064_at) / Fold change /veh REEP3 (11722064_at) / RFU IGLL1 (11728026_x_at) / Fold change /veh IGLL1 (11728026_x_at): dose or concentration left out as unconfirmed. The following applies: ProbeSet 11719185_x_at; LIST B.

As to `Nc1ncn([C@@H]2O[C@H](CO)[C@@H](O)[C@H]2O)c(=O)n1` [azacitidine], the “Fold change vs veh, N4BP2L2” value is 0.90.
